# Patent US20090285916A1, “METHODS OF DIAGNOSIS AND TREATMENT OF EQUINE LAMINITIS AND CUSHING'S SYNDROME” (Pegasus Equine Diagnostics Limited, priority 2006, published 2009)
# How the values were obtained:
# equine digital arteries = details: reference 38; cited from earlier work
# [1] = tested on: PPID (pituitary pars intermedia dysfunction); assay: Anecdotal evidence on melatonin and pergolide dosing in PPID horses and ponies; format: in vivo
# Text: From a chronological perspective obviously both groups of horses were aged (>16 years), but from the viewpoint of the Neuroendocrine Theory of Aging (21) the PPID group might be considered to be of greater “biological age” than the control group. […] There was also a pronounced dopamine rhythm phase shift and amplitude decrease for the PPID group in June and September, in addition to evidence of serotonin acrophase amplitudes being increased in September. These observations are consistent with the reduction in dopamine and concomitant increase in serotonin implied in the treatment of PPID horses with dopamine agonists and serotonin antagonists. […] This may also apply to the subsequent increases in follicle density and length plus coarsening of the hair structure that have been observed. It is worth noting that the significant differences between the groups in our results appear to pre-date the traditionally acknowledged seasons (spring, autumn) of increased laminitis susceptibility by approximately three months (as well as being present during such seasons); this is perhaps not when most practitioners would expect them. […] The situation may, of course, be exacerbated by other trigger factors for laminitis becoming part of the external conditions to which the horse is exposed, e.g. access to a flush of spring grass. Additionally, it might be expected that dopamine and serotonin would be the dominant factors implicated in investigating PPID, as defined by past treatment regimes. However, when the results of the present study were examined as a whole, taking into account assay sensitivity, the neurohormone rhythms that were discovered and neurohormone rhythms that exist in the literature for healthy horses (14, 40, 41), the signals felt to be most reliable were dopamine plasma concentrations and serotonin:melatonin and dopamine:melatonin plasma concentration ratios, with serotonin:dopamine only represented for two times in June (as shown in FIG. 6). […]
structure (smiles),measurement,setting,value
"NCCc1c[nH]c2ccc(O)cc12 [5-HT, 5-hydroxytryptamine]",sensitivity of digital arteries to vasoconstrictive actions compared with other peripheral blood vessels,equine digital arteries,30-40 fold
COc1ccc2[nH]cc(CCNC(C)=O)c2c1 [melatonin],shedding of the winter coat,"[1]; low dosage 1.5 mg, in the evening each day, all year round",facilitates shedding of the winter coat at the expected time
CCCN1C[C@H](CSC)C[C@@H]2c3cccc4[nH]cc(c34)C[C@H]21 [pergolide],"effect of changing time of day of administration, changing the dosage (by as little as 0.05 mg per day) and under or over dosing",[1],increase the probability that laminitis will occur
same,maximum dosage for ponies,[1]; ponies,0.75 mg
